Assay results from US11802120B2, “Fused cyclic urea derivatives as CRHR2 antagonist” (RaQualia Pharma Inc., priority 2018, dated 2023).

These compounds were tested against T1, human CRHR2-alpha (Homo sapiens, UniProt Q13324) (assay: cAMP functional assay for human CRHR2 (LANCE Ultra cAMP, TR-FRET)). Conditions: CHO-K1 cells expressing human CRHR2-alpha, agonist human urocortin2 at EC80, cAMP; read-out: IC50 against CRHR2.
T1 sequence (Q13324 1-411): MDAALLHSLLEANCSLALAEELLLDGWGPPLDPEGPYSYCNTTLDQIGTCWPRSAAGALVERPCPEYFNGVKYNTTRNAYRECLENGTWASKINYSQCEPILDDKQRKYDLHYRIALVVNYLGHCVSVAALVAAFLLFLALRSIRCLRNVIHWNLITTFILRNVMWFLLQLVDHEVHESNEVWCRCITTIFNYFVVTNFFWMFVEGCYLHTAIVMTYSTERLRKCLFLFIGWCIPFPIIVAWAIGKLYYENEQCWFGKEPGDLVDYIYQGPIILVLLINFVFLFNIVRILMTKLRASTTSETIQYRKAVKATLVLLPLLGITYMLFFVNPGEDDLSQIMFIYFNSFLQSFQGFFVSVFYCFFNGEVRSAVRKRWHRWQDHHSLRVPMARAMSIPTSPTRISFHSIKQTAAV
Type: cell-based
Procedure, shortened: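 First, starved and frozen CHO-K1 cells expressing the receptor are thawed into IBMX-containing HBSS buffer (pH 7.4). Next, compounds are added for 30 min at 25° C. Then agonist at EC80 (urocortin2 or CRF, per receptor) is added for another 30 min, followed by cAMP detection reagents.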

Row | IC50 | SMILES
1 | < 300 nM | Cc1ncc(Cl)cc1C(=O)N[C@H]1CC[C@H](Cn2c(=O)n(-c3ccc4nc(C)n(C)c4c3)c3ccccc32)CC1 [Example 209, 5-chloro-N-((1r,4r)-4-((2′,3′-dimethyl-2-oxo-3′H-[1,5′-bibenzo[d]imidazol]-3(2H)-yl)methyl)cyclohexyl)-2-methylnicotinamide]
2 | < 300 nM | Cc1ncc(Cl)cc1C(=O)N[C@H]1CC[C@H](Cn2c(=O)n(-c3ccc4c(Cl)n[nH]c4c3)c3ccccc32)CC1 [Example 210, 5-chloro-N-((1r,4r)-4-((3-(3-chloro-1H-indazol-6-yl)-2-oxo-2,3-dihydro-1H-benzo[d]imidazol-1-yl)methyl)cyclohexyl)-2-methylnicotinamide]
3 | < 300 nM | Cc1ncc(Cl)cc1C(=O)N[C@H]1CC[C@H](Cn2c(=O)n(C3Cc4ccc(Br)cc4C3)c3ccncc32)CC1 (some centres unmarked) [Example 211, N-((1r,4r)-4-((1-(5-bromo-2,3-dihydro-1H-inden-2-yl)-2-oxo-1H-imidazo[4,5-c]pyridin-3(2H)-yl)methyl)cyclohexyl)-5-chloro-2-methylnicotinamide]
4 | < 300 nM | Cc1ncc(Cl)cc1C(=O)N[C@H]1CC[C@H](Cn2c(=O)n(-c3ccc4[nH]nc(C)c4c3)c3ncccc32)CC1 [Example 212, 5-chloro-2-methyl-N-((1r,4r)-4-((3-(3-methyl-1H-indazol-5-yl)-2-oxo-2,3-dihydro-1H-imidazo[4,5-b]pyridin-1-yl)methyl)cyclohexyl)nicotinamide]
5 | < 300 nM | Cc1ncc(Cl)cc1C(=O)N[C@H]1CC[C@H](Cn2c(=O)n(-c3ccc4c(c3)c(C)nn4C)c3ccccc32)CC1 [Example 213, 5-chloro-N-((1r,4r)-4-((3-(1,3-dimethyl-1H-indazol-5-yl)-2-oxo-2,3-dihydro-1H-benzo[d]imidazol-1-yl)methyl)cyclohexyl)-2-methylnicotinamide]
6 | < 300 nM | Cc1ncc(Cl)cc1C(=O)N[C@H]1CC[C@H](Cn2c(=O)n(-c3ccc(-c4cnn(C)c4)nc3)c3ccccc32)CC1 [Example 214, 5-chloro-2-methyl-N-((1r,4r)-4-((3-(6-(1-methyl-1H-pyrazol-4-yl)pyridin-3-yl)-2-oxo-2,3-dihydro-1H-benzo[d]imidazol-1-yl)methyl)cyclohexyl)nico-tinamide]
7 | < 300 nM | Cc1ncc(Cl)cc1C(=O)N[C@H]1CC[C@H](Cn2c(=O)n(-c3cnc4c(c3)oc(=O)n4C)c3ccccc32)CC1 [Example 215, 5-chloro-2-methyl-N-((1r,4r)-4-((3-(3-methyl-2-oxo-2,3-dihydrooxazolo[4,5-b]pyridin-6-yl)-2-oxo-2,3-dihydro-1H-benzo[d]imidazol-1-yl)methyl)cyclohexyl)nicotinamide]
8 | < 300 nM | Cc1ncc(Cl)cc1C(=O)N[C@H]1CC[C@H](Cn2c(=O)n(-c3ccc(-c4ccc(N)nc4)nc3)c3ccccc32)CC1 [Example 216]
9 | < 300 nM | CC(=O)N1CCc2cc(-n3c(=O)n(C[C@H]4CC[C@H](NC(=O)c5cc(Cl)cnc5C)CC4)c4ccccc43)ccc2C1 [Example 218, N-((1r,4r)-4-((3-(2-acetyl-1,2,3,4-tetrahydroisoquinolin-6-yl)-2-oxo-2,3-dihydro-1H-benzo[d]imidazol-1-yl)methyl)cyclohexyl)-5-chloro-2-methylnicotinamide]
10 | < 300 nM | Cc1ncc(Cl)cc1C(=O)N[C@H]1CC[C@H](Cn2c(=O)n(-c3ccccc3C#N)c3ccccc32)CC1 [Example 219, 5-chloro-N-((1r,4r)-4-((3-(2-cyanophenyl)-2-oxo-2,3-dihydro-1H-benzo[d]imidazol-1-yl)methyl)cyclohexyl)-2-methylnicotinamide]
11 | < 300 nM | COc1ccc(-n2c(=O)n(C[C@H]3CC[C@H](NC(=O)c4c5ccccc5nn4C)CC3)c3ccccc32)cn1 [Example 220, N-((1r,4r)-4-((3-(6-methoxy-pyridin-3-yl)-2-oxo-2,3-dihydro-1H-benzo[d]imidazol-1-yl)methyl)cyclohexyl)-2-methyl-2H-indazole-3-carboxamide]
